Laboratory results reported in the kinase profiling compilation of Christmann-Franck et al. (2016).

Legend:
Test in all cases: KINOMEscan competition binding
Details in all cases: compound 10.0 µM
PLK1 (human) = PLK1 (human) (UniProt P53350)
PRKAA2 (human) = PRKAA2 (human) (UniProt P54646)
ADCK3 (human) = ADCK3 (human) (UniProt Q8NI60)
CDC2L2 (human) = CDC2L2 (human) (UniProt Q9UQ88)
MAP2K6 (human) = MAP2K6 (human) (UniProt P52564)
CAMK1D (human) = CAMK1D (human) (UniProt Q8IU85)
[1] = test system: ABL1 (human), P00519 [H396P]
CDK11B (human) = CDK11B (human) (UniProt P21127)
FES (human) = FES (human) (UniProt P07332)
EPHB1 (human) = EPHB1 (human) (UniProt P54762)
CDK15 (human) = CDK15 (human) (UniProt Q96Q40)
BRSK1 (human) = BRSK1 (human) (UniProt Q8TDC3)
MARK3 (human) = MARK3 (human) (UniProt P27448)
NUAK1 (human) = NUAK1 (human) (UniProt O60285)
ERBB4 (human) = ERBB4 (human) (UniProt Q15303)
WEE2 (human) = WEE2 (human) (UniProt P0C1S8)
[2] = test system: ABL1 (human), P00519 [F317L]
NLK (human) = NLK (human) (UniProt Q9UBE8)
MAPK13 (human) = MAPK13 (human) (UniProt O15264)
CDK14 (human) = CDK14 (human) (UniProt O94921)
INSR (human) = INSR (human) (UniProt P06213)
TYRO3 (human) = TYRO3 (human) (UniProt Q06418)
NTRK1 (human) = NTRK1 (human) (UniProt P04629)
TXK (human) = TXK (human) (UniProt P42681)
PKN2 (human) = PKN2 (human) (UniProt Q16513)
TGFBR1 (human) = TGFBR1 (human) (UniProt P36897)
LATS1 (human) = LATS1 (human) (UniProt O95835)
[3] = test system: ABL1 (human), P00519 [F317I]
RPS6KA1 KD1 (human) = RPS6KA1 KD1 (human) (UniProt Q15418)
[4] = test system: ABL1 (human), P00519 [M351T]
[5] = test system: ABL1 (human), P00519 [E255K]
MAP3K9 (human) = MAP3K9 (human) (UniProt P80192)
CDC42BPG (human) = CDC42BPG (human) (UniProt Q6DT37)
CAMK1G (human) = CAMK1G (human) (UniProt Q96NX5)
DCLK2 (human) = DCLK2 (human) (UniProt Q8N568)
KDR (human) = KDR (human) (UniProt P35968)
PAK7 (human) = PAK7 (human) (UniProt Q9P286)
SIK1 (human) = SIK1 (human) (UniProt P57059)
GSK3B (human) = GSK3B (human) (UniProt P49841)
EPHA4 (human) = EPHA4 (human) (UniProt P54764)
IKBKB (human) = IKBKB (human) (UniProt O14920)
FGFR4 (human) = FGFR4 (human) (UniProt P22455)

Sequence of CDC42BPG (human) (Q6DT37 whole entry, looked up): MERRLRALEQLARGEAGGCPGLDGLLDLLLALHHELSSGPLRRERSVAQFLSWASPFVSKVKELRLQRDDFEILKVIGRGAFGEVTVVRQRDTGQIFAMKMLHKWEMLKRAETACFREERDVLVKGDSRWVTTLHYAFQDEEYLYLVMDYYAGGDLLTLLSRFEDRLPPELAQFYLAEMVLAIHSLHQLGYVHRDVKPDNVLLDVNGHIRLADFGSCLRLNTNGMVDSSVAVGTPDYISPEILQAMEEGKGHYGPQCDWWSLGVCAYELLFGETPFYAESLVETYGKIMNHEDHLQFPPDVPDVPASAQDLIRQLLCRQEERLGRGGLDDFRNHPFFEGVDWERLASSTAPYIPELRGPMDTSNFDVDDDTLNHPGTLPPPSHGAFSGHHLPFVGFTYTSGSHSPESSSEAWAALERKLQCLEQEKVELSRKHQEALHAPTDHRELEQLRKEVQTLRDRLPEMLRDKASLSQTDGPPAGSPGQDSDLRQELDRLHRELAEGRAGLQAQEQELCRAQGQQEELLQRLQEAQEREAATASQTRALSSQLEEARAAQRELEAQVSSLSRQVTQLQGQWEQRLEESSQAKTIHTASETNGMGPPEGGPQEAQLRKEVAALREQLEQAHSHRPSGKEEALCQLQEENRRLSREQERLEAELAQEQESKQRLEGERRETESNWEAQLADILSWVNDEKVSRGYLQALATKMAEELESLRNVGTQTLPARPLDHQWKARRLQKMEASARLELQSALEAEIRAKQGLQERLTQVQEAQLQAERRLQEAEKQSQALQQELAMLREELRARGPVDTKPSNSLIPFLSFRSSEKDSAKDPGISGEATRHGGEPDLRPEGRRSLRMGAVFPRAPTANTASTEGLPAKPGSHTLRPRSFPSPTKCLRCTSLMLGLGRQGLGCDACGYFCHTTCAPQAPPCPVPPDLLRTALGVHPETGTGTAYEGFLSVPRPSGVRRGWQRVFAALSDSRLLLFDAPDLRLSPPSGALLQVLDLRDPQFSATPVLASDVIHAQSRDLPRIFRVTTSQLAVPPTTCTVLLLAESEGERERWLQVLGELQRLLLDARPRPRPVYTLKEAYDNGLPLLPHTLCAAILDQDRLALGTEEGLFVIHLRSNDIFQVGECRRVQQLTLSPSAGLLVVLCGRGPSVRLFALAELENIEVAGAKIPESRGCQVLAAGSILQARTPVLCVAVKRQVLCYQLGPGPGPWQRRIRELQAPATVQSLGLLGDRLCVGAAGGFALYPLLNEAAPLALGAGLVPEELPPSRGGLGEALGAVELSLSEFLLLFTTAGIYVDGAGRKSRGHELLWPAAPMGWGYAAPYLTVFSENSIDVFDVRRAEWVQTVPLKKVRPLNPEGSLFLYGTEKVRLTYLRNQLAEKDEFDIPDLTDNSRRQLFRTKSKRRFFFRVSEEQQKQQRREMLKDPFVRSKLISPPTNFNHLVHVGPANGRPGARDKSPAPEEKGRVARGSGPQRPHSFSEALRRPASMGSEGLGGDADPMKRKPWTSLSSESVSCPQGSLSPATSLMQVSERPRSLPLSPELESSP
Sequence of FES (human) (P07332 whole entry, looked up): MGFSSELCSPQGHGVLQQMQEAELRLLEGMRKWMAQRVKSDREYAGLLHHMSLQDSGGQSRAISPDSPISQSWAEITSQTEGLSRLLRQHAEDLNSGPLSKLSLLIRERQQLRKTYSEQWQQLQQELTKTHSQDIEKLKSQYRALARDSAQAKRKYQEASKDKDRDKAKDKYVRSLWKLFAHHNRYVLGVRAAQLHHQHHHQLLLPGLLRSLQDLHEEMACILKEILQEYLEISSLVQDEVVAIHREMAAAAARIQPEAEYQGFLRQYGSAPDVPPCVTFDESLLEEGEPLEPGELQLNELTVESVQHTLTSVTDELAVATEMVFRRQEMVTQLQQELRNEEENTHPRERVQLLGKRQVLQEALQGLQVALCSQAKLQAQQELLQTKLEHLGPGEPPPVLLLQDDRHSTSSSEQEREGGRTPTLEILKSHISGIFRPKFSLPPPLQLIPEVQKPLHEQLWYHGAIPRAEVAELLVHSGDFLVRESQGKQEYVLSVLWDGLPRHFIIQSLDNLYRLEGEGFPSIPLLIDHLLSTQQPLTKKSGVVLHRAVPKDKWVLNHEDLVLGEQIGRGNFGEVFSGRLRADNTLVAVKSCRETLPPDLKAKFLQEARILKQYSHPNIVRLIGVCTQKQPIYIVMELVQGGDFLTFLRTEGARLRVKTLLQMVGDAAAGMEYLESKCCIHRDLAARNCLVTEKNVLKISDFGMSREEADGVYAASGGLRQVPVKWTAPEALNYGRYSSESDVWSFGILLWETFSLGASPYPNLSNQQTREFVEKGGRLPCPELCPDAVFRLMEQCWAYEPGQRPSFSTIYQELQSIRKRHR
Sequence of ERBB4 (human) (Q15303 whole entry, looked up): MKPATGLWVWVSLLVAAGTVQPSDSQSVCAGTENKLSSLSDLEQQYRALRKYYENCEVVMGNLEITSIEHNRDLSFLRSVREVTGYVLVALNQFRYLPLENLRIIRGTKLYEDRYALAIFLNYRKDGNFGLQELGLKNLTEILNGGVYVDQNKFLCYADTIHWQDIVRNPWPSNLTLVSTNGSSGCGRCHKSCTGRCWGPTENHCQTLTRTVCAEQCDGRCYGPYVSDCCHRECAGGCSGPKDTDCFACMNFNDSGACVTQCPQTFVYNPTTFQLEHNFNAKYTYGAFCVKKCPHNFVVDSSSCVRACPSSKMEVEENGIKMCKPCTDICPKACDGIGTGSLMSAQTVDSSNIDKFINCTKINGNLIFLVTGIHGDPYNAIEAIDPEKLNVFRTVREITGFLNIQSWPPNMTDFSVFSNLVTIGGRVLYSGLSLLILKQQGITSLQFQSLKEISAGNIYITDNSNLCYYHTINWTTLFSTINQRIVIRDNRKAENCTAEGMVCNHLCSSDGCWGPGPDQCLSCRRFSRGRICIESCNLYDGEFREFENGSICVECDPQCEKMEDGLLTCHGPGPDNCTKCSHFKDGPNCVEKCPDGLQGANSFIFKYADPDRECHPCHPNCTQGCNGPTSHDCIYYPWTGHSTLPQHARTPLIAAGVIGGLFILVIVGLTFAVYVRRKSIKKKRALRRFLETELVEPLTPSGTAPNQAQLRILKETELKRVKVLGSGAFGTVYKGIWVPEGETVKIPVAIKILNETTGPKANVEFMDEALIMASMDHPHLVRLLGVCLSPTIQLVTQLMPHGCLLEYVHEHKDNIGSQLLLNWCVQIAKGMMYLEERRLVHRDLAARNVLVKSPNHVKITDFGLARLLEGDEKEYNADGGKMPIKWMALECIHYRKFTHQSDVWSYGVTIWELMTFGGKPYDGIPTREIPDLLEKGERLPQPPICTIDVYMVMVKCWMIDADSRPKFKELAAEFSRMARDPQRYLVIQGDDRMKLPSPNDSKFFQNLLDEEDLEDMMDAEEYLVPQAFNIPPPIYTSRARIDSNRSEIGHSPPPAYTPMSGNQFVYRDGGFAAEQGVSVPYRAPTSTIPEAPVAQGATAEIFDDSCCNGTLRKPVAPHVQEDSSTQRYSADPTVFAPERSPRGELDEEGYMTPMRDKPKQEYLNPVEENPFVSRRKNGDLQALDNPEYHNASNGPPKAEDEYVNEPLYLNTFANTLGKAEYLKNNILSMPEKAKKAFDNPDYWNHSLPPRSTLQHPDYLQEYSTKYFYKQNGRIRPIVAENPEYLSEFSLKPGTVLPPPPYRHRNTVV
Sequence of CDK14 (human) (O94921 whole entry, looked up): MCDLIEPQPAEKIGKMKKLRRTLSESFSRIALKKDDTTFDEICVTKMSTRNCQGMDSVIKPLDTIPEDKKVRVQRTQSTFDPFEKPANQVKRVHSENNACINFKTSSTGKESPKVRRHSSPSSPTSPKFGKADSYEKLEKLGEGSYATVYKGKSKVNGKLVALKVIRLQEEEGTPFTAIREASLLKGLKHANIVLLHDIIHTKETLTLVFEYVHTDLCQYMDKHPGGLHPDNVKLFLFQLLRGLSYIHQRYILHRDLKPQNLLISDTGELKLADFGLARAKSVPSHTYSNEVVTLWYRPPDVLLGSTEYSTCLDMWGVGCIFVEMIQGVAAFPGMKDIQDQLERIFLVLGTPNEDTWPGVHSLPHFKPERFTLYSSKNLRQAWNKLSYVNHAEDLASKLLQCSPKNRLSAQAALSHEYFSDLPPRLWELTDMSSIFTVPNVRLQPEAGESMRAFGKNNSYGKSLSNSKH
Sequence of NTRK1 (human) (P04629 whole entry, looked up): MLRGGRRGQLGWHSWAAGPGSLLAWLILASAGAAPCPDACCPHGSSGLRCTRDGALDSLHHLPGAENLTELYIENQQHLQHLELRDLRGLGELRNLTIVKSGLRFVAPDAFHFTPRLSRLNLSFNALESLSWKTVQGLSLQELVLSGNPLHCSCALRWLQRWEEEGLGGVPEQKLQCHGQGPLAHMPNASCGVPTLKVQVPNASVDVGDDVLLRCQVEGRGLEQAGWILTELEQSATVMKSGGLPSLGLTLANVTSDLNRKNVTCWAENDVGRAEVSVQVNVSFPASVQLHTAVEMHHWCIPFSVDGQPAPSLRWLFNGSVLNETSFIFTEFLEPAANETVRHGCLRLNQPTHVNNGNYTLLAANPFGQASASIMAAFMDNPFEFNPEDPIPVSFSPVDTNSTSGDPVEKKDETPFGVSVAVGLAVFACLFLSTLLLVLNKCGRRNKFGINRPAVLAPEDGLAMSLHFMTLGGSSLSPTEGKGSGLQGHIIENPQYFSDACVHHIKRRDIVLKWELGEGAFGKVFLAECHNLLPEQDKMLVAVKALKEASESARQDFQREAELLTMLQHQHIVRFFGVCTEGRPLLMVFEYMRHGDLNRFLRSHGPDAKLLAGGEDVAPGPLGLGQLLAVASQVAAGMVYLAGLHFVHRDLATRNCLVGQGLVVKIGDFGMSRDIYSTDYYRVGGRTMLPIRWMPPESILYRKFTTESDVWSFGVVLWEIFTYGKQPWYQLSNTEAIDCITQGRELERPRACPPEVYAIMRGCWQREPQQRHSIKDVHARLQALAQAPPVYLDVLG

**Q.** Which kinase still bound, per cent of control (PLK1 (human)) does the source give for `COc1cc(N2CCN(C)CC2)ccc1Nc1ncc2c(n1)N(C)c1sccc1C(=O)N2C` here?
**A.** The kinase still bound, per cent of control was 2.5%.

**Q.** What about the kinase still bound, per cent of control (PRKAA2 (human)) of the same compound?
**A.** Its kinase still bound, per cent of control is 94%.

**Q.** And the kinase still bound, per cent of control (ADCK3 (human))?
**A.** Its kinase still bound, per cent of control is 100%.

**Q.** And the kinase still bound, per cent of control (CDC2L2 (human))?
**A.** Its kinase still bound, per cent of control is 100%.

**Q.** And the kinase still bound, per cent of control (MAP2K6 (human))?
**A.** The kinase still bound, per cent of control was 100%.

**Q.** And the kinase still bound, per cent of control (CAMK1D (human))?
**A.** The kinase still bound, per cent of control was 71%.

**Q.** What about the kinase still bound, per cent of control [1] of the same compound?
**A.** The kinase still bound, per cent of control was 82%.

**Q.** What about the kinase still bound, per cent of control (CDK11B (human)) of the same compound?
**A.** The kinase still bound, per cent of control was 85%.

**Q.** What about the kinase still bound, per cent of control (FES (human)) of the same compound?
**A.** Its kinase still bound, per cent of control is 100%.

**Q.** And the kinase still bound, per cent of control (EPHB1 (human))?
**A.** Its kinase still bound, per cent of control is 88%.

**Q.** What about the kinase still bound, per cent of control (CDK15 (human)) of the same compound?
**A.** The kinase still bound, per cent of control was 92%.

**Q.** What about the kinase still bound, per cent of control (BRSK1 (human)) of the same compound?
**A.** The kinase still bound, per cent of control was 81%.

**Q.** And the kinase still bound, per cent of control (MARK3 (human))?
**A.** Its kinase still bound, per cent of control is 91%.

**Q.** And the kinase still bound, per cent of control (NUAK1 (human))?
**A.** Its kinase still bound, per cent of control is 25%.

**Q.** And the kinase still bound, per cent of control (ERBB4 (human))?
**A.** Its kinase still bound, per cent of control is 88%.

**Q.** What about the kinase still bound, per cent of control (WEE2 (human)) of the same compound?
**A.** Its kinase still bound, per cent of control is 94%.

**Q.** And the kinase still bound, per cent of control [2]?
**A.** The kinase still bound, per cent of control was 1.8%.

**Q.** What about the kinase still bound, per cent of control (NLK (human)) of the same compound?
**A.** The kinase still bound, per cent of control was 100%.

**Q.** What about the kinase still bound, per cent of control (MAPK13 (human)) of the same compound?
**A.** The kinase still bound, per cent of control was 71%.

**Q.** What about the kinase still bound, per cent of control (CDK14 (human)) of the same compound?
**A.** The kinase still bound, per cent of control was 96%.

**Q.** And the kinase still bound, per cent of control (INSR (human))?
**A.** The kinase still bound, per cent of control was 100%.

**Q.** And the kinase still bound, per cent of control (TYRO3 (human))?
**A.** The kinase still bound, per cent of control was 76%.

**Q.** What about the kinase still bound, per cent of control (NTRK1 (human)) of the same compound?
**A.** Its kinase still bound, per cent of control is 60%.

**Q.** And the kinase still bound, per cent of control (TXK (human))?
**A.** Its kinase still bound, per cent of control is 72%.

**Q.** And the kinase still bound, per cent of control (PKN2 (human))?
**A.** The kinase still bound, per cent of control was 90%.

**Q.** What about the kinase still bound, per cent of control (TGFBR1 (human)) of the same compound?
**A.** Its kinase still bound, per cent of control is 100%.

**Q.** And the kinase still bound, per cent of control (LATS1 (human))?
**A.** Its kinase still bound, per cent of control is 79%.

**Q.** What about the kinase still bound, per cent of control [3] of the same compound?
**A.** The kinase still bound, per cent of control was 6.6%.

**Q.** What about the kinase still bound, per cent of control (RPS6KA1 KD1 (human)) of the same compound?
**A.** The kinase still bound, per cent of control was 92%.

**Q.** What about the kinase still bound, per cent of control [4] of the same compound?
**A.** Its kinase still bound, per cent of control is 82%.

**Q.** What about the kinase still bound, per cent of control [5] of the same compound?
**A.** Its kinase still bound, per cent of control is 85%.

**Q.** And the kinase still bound, per cent of control (MAP3K9 (human))?
**A.** Its kinase still bound, per cent of control is 100%.

**Q.** What about the kinase still bound, per cent of control (CDC42BPG (human)) of the same compound?
**A.** Its kinase still bound, per cent of control is 91%.

**Q.** And the kinase still bound, per cent of control (CAMK1G (human))?
**A.** The kinase still bound, per cent of control was 68%.

**Q.** What about the kinase still bound, per cent of control (DCLK2 (human)) of the same compound?
**A.** The kinase still bound, per cent of control was 1%.

**Q.** What about the kinase still bound, per cent of control (KDR (human)) of the same compound?
**A.** Its kinase still bound, per cent of control is 90%.

**Q.** What about the kinase still bound, per cent of control (PAK7 (human)) of the same compound?
**A.** Its kinase still bound, per cent of control is 71%.

**Q.** And the kinase still bound, per cent of control (SIK1 (human))?
**A.** Its kinase still bound, per cent of control is 81%.

**Q.** What about the kinase still bound, per cent of control (GSK3B (human)) of the same compound?
**A.** The kinase still bound, per cent of control was 97%.

**Q.** What about the kinase still bound, per cent of control (EPHA4 (human)) of the same compound?
**A.** Its kinase still bound, per cent of control is 100%.

**Q.** And the kinase still bound, per cent of control (IKBKB (human))?
**A.** The kinase still bound, per cent of control was 65%.

**Q.** What about the kinase still bound, per cent of control (FGFR4 (human)) of the same compound?
**A.** The kinase still bound, per cent of control was 40%.
